Source: ChEMBL document CHEMBL1201862, “PubChem BioAssay data set” (2004)
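Values below derive from 48-hour exposures of cells grown in 96-well plates, with endpoints linearly interpolated between the two concentrations bracketing the appropriate inhibition level. At the GI50, growth is halved.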 The source made the active and inactive calls. Cut-off read from the data, not from the text of the source: active = GI50 up to about 1.1 µM and inactive = higher.

Columns and labels:
Assay in all cases: inhibition of tumour cell growth, NCI panel, 48 h
[1] = tested on: SNB-75
[2] = tested on: UACC-62
[3] = tested on: A498
[4] = tested on: OVCAR-8
[5] = tested on: NCI/ADR-RES
[6] = tested on: SK-OV-3
[7] = tested on: HOP-92
[8] = tested on: HCT-116
[9] = tested on: K562
[10] = tested on: MDA-MB-435
[11] = tested on: SN12C
[12] = tested on: TK-10
[13] = tested on: MCF7
[14] = tested on: NCI-H226
[15] = tested on: KM12
[16] = tested on: NCI-H23
[17] = tested on: UO-31
[18] = tested on: SW-620
[19] = tested on: RPMI-8226
[20] = tested on: T47D
[21] = tested on: EKVX
[22] = tested on: SF-268
[23] = tested on: U-251
[24] = tested on: 786-0
[25] = tested on: HT-29
[26] = tested on: OVCAR-4
[27] = tested on: UACC-257
[28] = tested on: SK-MEL-2
[29] = tested on: NCI-H522
[30] = tested on: SF-539
[31] = tested on: SNB-19
[32] = tested on: LOX IMVI
[33] = tested on: COLO 205
[34] = tested on: RXF 393
[35] = tested on: HCT-15
[36] = tested on: BT-549
[37] = tested on: MOLT-4
[38] = tested on: ACHN
[39] = tested on: IGROV-1
[40] = tested on: Hs-578T
[41] = tested on: HL-60
[42] = tested on: Malme-3M
[43] = tested on: SR
[44] = tested on: PC-3
[45] = tested on: A549
[46] = tested on: MDA-MB-231
[47] = tested on: SF-295
[48] = tested on: MDA-N
[49] = tested on: NCI-H460
[50] = tested on: SK-MEL-28
[51] = tested on: CAKI-1
[52] = tested on: CCRF-CEM
[53] = tested on: DU-145
[54] = tested on: SK-MEL-5
[55] = tested on: M14
[56] = tested on: HOP-62
[57] = tested on: OVCAR-5
[58] = tested on: HCC 2998
[59] = tested on: OVCAR-3

## CCOC(=O)c1cc2c([nH]1)C(=O)CC1=C2CCN1Cc1ccccc1
[1]
  GI50: 23.3 µM (inactive)
[2]
  GI50: 14.8 µM (inactive)
[3]
  GI50: 15.3 µM (inactive)
[4]
  GI50: 23.1 µM (inactive)
[5]
  GI50: 20.7 µM (inactive)
[6]
  GI50: 19.4 µM (inactive)
[7]
  GI50: 14.3 µM (inactive)
[8]
  GI50: 13 µM (inactive)
[9]
  GI50: 3.8 µM (inactive)
[10]
  GI50: 13.2 µM (inactive)
[11]
  GI50: 18.2 µM (inactive)
[12]
  GI50: 13.9 µM (inactive)
[13]
  GI50: 13.3 µM (inactive)
[14]
  GI50: 0.585 µM (active)
[15]
  GI50: 17.6 µM (inactive)
[16]
  GI50: 16.1 µM (inactive)
[17]
  GI50: 15.3 µM (inactive)
[18]
  GI50: 5.36 µM (inactive)
[19]
  GI50: 3.81 µM (inactive)
[20]
  GI50: 2.45 µM (inactive)
[21]
  GI50: 19.8 µM (inactive)
[22]
  GI50: 21.3 µM (inactive)
[23]
  GI50: 12.5 µM (inactive)
[24]
  GI50: 17.2 µM (inactive)
[25]
  GI50: 16 µM (inactive)
[26]
  GI50: 13.6 µM (inactive)
[27]
  GI50: 17.4 µM (inactive)
[28]
  GI50: 20.5 µM (inactive)
[29]
  GI50: 17.9 µM (inactive)
[30]
  GI50: 22.1 µM (inactive)
[31]
  GI50: 17.5 µM (inactive)
[32]
  GI50: 13.3 µM (inactive)
[33]
  GI50: 16.8 µM (inactive)
[34]
  GI50: 13.9 µM (inactive)
[35]
  GI50: 8.53 µM
[36]
  GI50: 18.1 µM (inactive)
[37]
  GI50: 4.06 µM (inactive)
[38]
  GI50: 12.9 µM (inactive)
[39]
  GI50: 17.9 µM (inactive)
[40]
  GI50: 20.4 µM (inactive)
[41]
  GI50: 7.4 µM (inactive)
[42]
  GI50: 5.65 µM (inactive)
[43]
  GI50: 5.02 µM (inactive)
[44]
  GI50: 20.5 µM (inactive)
[45]
  GI50: 21.4 µM (inactive)
[46]
  GI50: 13.2 µM (inactive)
[47]
  GI50: 18.5 µM (inactive)
[48]
  GI50: 13.5 µM (inactive)
[49]
  GI50: 18.4 µM (inactive)
[50]
  GI50: 17.2 µM (inactive)
[51]
  GI50: 3.46 µM (inactive)
[52]
  GI50: 4.43 µM (inactive)
[53]
  GI50: 15.2 µM (inactive)

## Cc1ccc(C(=O)Cc2nc3ncccc3[nH]c2=O)cc1
[2]
  GI50: 49.8 µM (inactive)
[3]
  GI50: > 100 µM (inactive)
[4]
  GI50: 23.6 µM (inactive)
[5]
  GI50: 59 µM (inactive)
[6]
  GI50: 23 µM (inactive)
[7]
  GI50: 14.6 µM (inactive)
[8]
  GI50: 30.5 µM (inactive)
[9]
  GI50: > 100 µM (inactive)
[10]
  GI50: 18.7 µM (inactive)
[11]
  GI50: 55.5 µM (inactive)
[12]
  GI50: 29.9 µM (inactive)
[13]
  GI50: 49.9 µM (inactive)
[14]
  GI50: 24.9 µM (inactive)
[15]
  GI50: 43.4 µM (inactive)
[16]
  GI50: 9.29 µM (inactive)
[17]
  GI50: 32.1 µM (inactive)
[18]
  GI50: 80 µM (inactive)
[19]
  GI50: 59 µM (inactive)
[20]
  GI50: 45.5 µM (inactive)
[21]
  GI50: 33.2 µM (inactive)
[22]
  GI50: 41.6 µM (inactive)
[23]
  GI50: 22.5 µM (inactive)
[24]
  GI50: 22.5 µM (inactive)
[54]
  GI50: 40.8 µM (inactive)
[25]
  GI50: 59.6 µM (inactive)
[26]
  GI50: 25.7 µM (inactive)
[27]
  GI50: 40.6 µM (inactive)
[28]
  GI50: > 100 µM (inactive)
[29]
  GI50: 48.3 µM (inactive)
[30]
  GI50: 30.5 µM (inactive)
[31]
  GI50: 6.15 µM (inactive)
[33]
  GI50: 58.9 µM (inactive)
[34]
  GI50: 44.2 µM (inactive)
[35]
  GI50: 41.2 µM
[36]
  GI50: 43.7 µM (inactive)
[37]
  GI50: 70.3 µM (inactive)
[38]
  GI50: 25.7 µM (inactive)
[39]
  GI50: 37.2 µM (inactive)
[40]
  GI50: 13.3 µM (inactive)
[55]
  GI50: 82.8 µM (inactive)
[41]
  GI50: > 100 µM (inactive)
[42]
  GI50: 23.2 µM (inactive)
[56]
  GI50: 26 µM (inactive)
[43]
  GI50: 48.5 µM (inactive)
[44]
  GI50: 43.9 µM (inactive)
[57]
  GI50: 81.5 µM (inactive)
[58]
  GI50: 51.5 µM (inactive)
[45]
  GI50: 12.8 µM (inactive)
[46]
  GI50: 24.9 µM (inactive)
[47]
  GI50: 45.4 µM (inactive)
[48]
  GI50: 74.8 µM (inactive)
[49]
  GI50: 45.4 µM (inactive)
[50]
  GI50: 32.8 µM (inactive)
[51]
  GI50: 65.5 µM (inactive)
[59]
  GI50: 40.1 µM (inactive)
[52]
  GI50: > 100 µM (inactive)
[53]
  GI50: 58.2 µM (inactive)

## COc1cc2c(cc1OC)[C@@](C)(C(O)C(O)C(C)(C)O)NCC2 (stereo not given in full)
[1]
  GI50: > 100 µM (inactive)
[2]
  GI50: > 100 µM (inactive)
[3]
  GI50: > 100 µM (inactive)
[4]
  GI50: > 100 µM (inactive)
[5]
  GI50: > 100 µM (inactive)
[6]
  GI50: > 100 µM (inactive)
[7]
  GI50: > 100 µM (inactive)
[8]
  GI50: > 100 µM (inactive)
[9]
  GI50: > 100 µM (inactive)
[10]
  GI50: > 100 µM (inactive)
[11]
  GI50: > 100 µM (inactive)
[12]
  GI50: > 100 µM (inactive)
[13]
  GI50: > 100 µM (inactive)
[14]
  GI50: > 100 µM (inactive)
[16]
  GI50: > 100 µM (inactive)
[17]
  GI50: > 100 µM (inactive)
[19]
  GI50: > 100 µM (inactive)
[20]
  GI50: > 100 µM (inactive)
[21]
  GI50: > 100 µM (inactive)
[22]
  GI50: > 100 µM (inactive)
[23]
  GI50: > 100 µM (inactive)
[24]
  GI50: > 100 µM (inactive)
[54]
  GI50: > 100 µM (inactive)
[25]
  GI50: > 100 µM (inactive)
[26]
  GI50: > 100 µM (inactive)
[27]
  GI50: > 100 µM (inactive)
[28]
  GI50: > 100 µM (inactive)
[29]
  GI50: > 100 µM (inactive)
[30]
  GI50: > 100 µM (inactive)
[31]
  GI50: > 100 µM (inactive)
[32]
  GI50: > 100 µM (inactive)
[33]
  GI50: > 100 µM (inactive)
[34]
  GI50: > 100 µM (inactive)
[35]
  GI50: > 100 µM
[36]
  GI50: > 100 µM (inactive)
[37]
  GI50: > 100 µM (inactive)
[38]
  GI50: > 100 µM (inactive)
[39]
  GI50: > 100 µM (inactive)
[40]
  GI50: > 100 µM (inactive)
[55]
  GI50: > 100 µM (inactive)
[41]
  GI50: > 100 µM (inactive)
[42]
  GI50: > 100 µM (inactive)
[56]
  GI50: > 100 µM (inactive)
[43]
  GI50: > 100 µM (inactive)
[44]
  GI50: > 100 µM (inactive)
[57]
  GI50: > 100 µM (inactive)
[45]
  GI50: > 100 µM (inactive)
[46]
  GI50: > 100 µM (inactive)
[47]
  GI50: > 100 µM (inactive)
[48]
  GI50: > 100 µM (inactive)
[50]
  GI50: > 100 µM (inactive)
[51]
  GI50: > 100 µM (inactive)
[59]
  GI50: > 100 µM (inactive)
[52]
  GI50: > 100 µM (inactive)
[53]
  GI50: > 100 µM (inactive)
